Laboratory results as given in article PMC3050645 (Journal of the American Chemical Society, 2010).

Target: Chlorite dismutase (Cld) (Dechloromonas aromatica (nom. nud.), UniProt Q47CX0)
Experiment: UV/vis Soret titration, hyperbolic fit
Type: binding

Chain of Chlorite dismutase (Cld) (Q47CX0 35-282): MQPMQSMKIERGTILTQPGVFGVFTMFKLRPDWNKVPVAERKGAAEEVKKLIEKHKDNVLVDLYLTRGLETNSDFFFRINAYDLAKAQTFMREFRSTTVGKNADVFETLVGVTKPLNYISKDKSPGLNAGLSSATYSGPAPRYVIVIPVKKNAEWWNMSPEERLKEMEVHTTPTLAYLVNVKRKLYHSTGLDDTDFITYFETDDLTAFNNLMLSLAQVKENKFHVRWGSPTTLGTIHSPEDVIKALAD

| Compound | Kd [µM] |
| --- | --- |
| c1ccncc1 [Pyridine] | 553 ± 8 |
| c1c[nH]cn1 [Imidazole] | 7.6 ± 0.2 |
| O=NO [NaNO2] | 770 ± 30 |
| N#CS [KSCN] | 74 ± 2 |
